Assay results reported in ChEMBL document CHEMBL1671659, “In vitro and in vivo properties of dihydrophthalazine antifolates, a novel family of antibacterial drugs” (Antimicrob Agents Chemother, 2009).
Values after ≈ are worked out from the molar mass of the structure shown. Active and inactive are the calls of the source. The rule behind the calls is not given here.

What was measured:
[1] = system: Staphylococcus epidermidis; test: Antibacterial activity against methicillin-sensitive dfrC, dfrA-positive and dfrD-negative Staphylococcus epidermidis; assay type: functional
[2] = system: Staphylococcus aureus; test: Antibacterial activity against trimethoprim-sensitive Staphylococcus aureus ATCC 29213 infected in NMRI mouse model of septicemia assessed as succumbed to infections at 1.6 mg/kg, iv; assay type: functional, organism-based; parameters: dose 1.6 mg/kg
[3] = system: Mus musculus; test: Toxicity in po dosed NMRI mouse; assay type: organism-based; settings: in vivo
[4] = system: Staphylococcus aureus; test: Antibacterial activity against methicillin-resistant dfrB, dfrA-positive and dfrA within SCCmec-N1, dfrG-negative Staphylococcus aureus; assay type: functional
[5] = system: Staphylococcus epidermidis; test: Antibacterial activity against methicillin-sensitive dfrA, dfrD-negative Staphylococcus epidermidis harboring F98Y mutation in dfrC gene; assay type: functional
[6] = system: Staphylococcus aureus; test: Antibacterial activity against vancomycin, trimethoprim, methicillin-resistant Staphylococcus aureus VRS1 harboring dfrA and dfrB genes; assay type: functional
[7] = system: Mus musculus; test: Hepatotoxicity in NMRI mouse assessed as increase in mitosis at 400 mg/kg administered through oral gavage for 10 days; assay type: toxicity, organism-based; parameters: dose 400 mg/kg, route oral; settings: in vivo, 240 h
[8] = system: Mus musculus; test: Hepatotoxicity in NMRI mouse assessed as inflammatory infiltrates at 400 mg/kg administered through oral gavage for 5 days; assay type: toxicity, organism-based; parameters: dose 400 mg/kg, route oral; settings: in vivo, 120 h
[9] = Cmax in NMRI mouse blood at 25 mg/kg administered through oral gavage measured after 7 hrs; assay type: ADME, organism-based; parameters: dose 25 mg/kg, route oral
[10] = system: Haemophilus influenzae; test: Antibacterial activity against Haemophilus influenzae in presence of 250 ug/ml thymidine; assay type: functional
[11] = system: Staphylococcus aureus; test: Antibacterial activity against methicillin, vancomycin, trimethoprim-sensitive Staphylococcus aureus ATCC 29213 harboring dfrB gene; assay type: functional
[12] = system: Staphylococcus aureus; test: Antibacterial activity against methicillin-resistant dfrA within SCCmec-N1, dfrA and dfrG -negative Staphylococcus aureus harboring F98Y mutation in dfrB gene; assay type: functional
[13] = system: Mus musculus; test: Hepatotoxicity in NMRI mouse assessed as increase in liver weight at 400 mg/kg administered through oral gavage for 5 days; assay type: toxicity, organism-based; parameters: dose 400 mg/kg, route oral; settings: in vivo, 120 h
[14] = system: Enterococcus faecium; test: Antibacterial activity against vancomycin-resistant dfrE, dfrF-negative and folA-positive Enterococcus faecium; assay type: functional
[15] = system: Enterococcus faecium; test: Antibacterial activity against Enterococcus faecium in presence of 250 ug/ml thymidine; assay type: functional
[16] = system: Mus musculus; test: Hepatotoxicity in NMRI mouse assessed as inflammatory infiltrates at 400 mg/kg administered through oral gavage for 10 days; assay type: toxicity, organism-based; parameters: dose 400 mg/kg, route oral; settings: in vivo, 240 h
[17] = system: Enterococcus faecalis; test: Antibacterial activity against vancomycin-sensitive dfrE, dfrF-positive and folA-negative Enterococcus faecalis; assay type: functional
[18] = Tmax in NMRI mouse blood at 25 mg/kg administered through oral gavage measured after 7 hrs; assay type: ADME, organism-based; parameters: dose 25 mg/kg, route oral
[19] = target: Dihydrofolate reductase (Staphylococcus aureus, UniProt P0A017, F99Y); test: Inhibition of trimethoprim-resistant Staphylococcus aureus DfrB type dihydrofolate reductase F98Y mutant
[20] = Inhibition of trimethoprim-sensitive Staphylococcus aureus DfrB type dihydrofolate reductase
[21] = system: Staphylococcus aureus; test: Antibacterial activity against trimethoprim-resistant Staphylococcus aureus BAS003908 infected in NMRI mouse model of septicemia; assay type: functional
[22] = system: HeLa; test: Cytotoxicity against human HeLa cells; assay type: cell-based
[23] = system: Mus musculus; test: Hepatotoxicity in NMRI mouse assessed as increase in mitosis at 400 mg/kg administered through oral gavage for 5 days; assay type: toxicity, organism-based; parameters: dose 400 mg/kg, route oral; settings: in vivo, 120 h
[24] = system: Staphylococcus epidermidis; test: Antibacterial activity against methicillin-resistant dfrC, dfrA-positive and dfrA within SCCmec-N1, dfrD-negative Staphylococcus epidermidis; assay type: functional
[25] = Oral bioavailability in NMRI mouse; assay type: ADME, organism-based; settings: in vivo
[26] = system: Mus musculus; test: Hepatotoxicity in NMRI mouse assessed as single-cell necrosis at 400 mg/kg administered through oral gavage for 10 days; assay type: toxicity, organism-based; parameters: dose 400 mg/kg, route oral; settings: in vivo, 240 h
[27] = system: Mus musculus; test: Hepatotoxicity in NMRI mouse assessed as increase in liver weight at 400 mg/kg administered through oral gavage for 10 days; assay type: toxicity, organism-based; parameters: dose 400 mg/kg, route oral; settings: in vivo, 240 h
[28] = system: Streptococcus pneumoniae; test: Antibacterial activity against Streptococcus pneumoniae in presence of 250 ug/ml thymidine; assay type: functional
[29] = system: Haemophilus influenzae; test: Antibacterial activity against Haemophilus influenzae; assay type: functional
[30] = system: Staphylococcus aureus; test: Antibacterial activity against vancomycin, trimethoprim-sensitive and methicillin-resistant Staphylococcus aureus ATCC 43300 harboring dfrB gene; assay type: functional
[31] = system: Mycobacterium avium; test: Antibacterial activity against Mycobacterium avium assessed as inhibition of bacterial growth at <=4 ug/ml; assay type: functional; parameters: scale not given: the % may be the effect or the level left
[32] = system: Staphylococcus epidermidis; test: Antibacterial activity against methicillin, vancomycin-sensitive and trimethoprim-resistant Staphylococcus epidermidis BAS000635 harboring dfrC and dfrA genes; assay type: functional
[33] = AUC (0 to t) in NMRI mouse blood at 25 mg/kg administered through oral gavage after 7 hrs; assay type: ADME, organism-based; parameters: time < 7 hr, dose 25 mg/kg, route oral
[34] = system: Mus musculus; test: Hepatotoxicity in NMRI mouse assessed as single-cell necrosis at 400 mg/kg administered through oral gavage for 5 days; assay type: toxicity, organism-based; parameters: dose 400 mg/kg, route oral; settings: in vivo, 120 h
[35] = system: Enterococcus faecalis; test: Antibacterial activity against vancomycin-sensitive folA, dfrF-negative Enterococcus faecalis harboring A5T, K88N, F102Y mutation in dfrE gene; assay type: functional
[36] = system: Staphylococcus aureus; test: Antibacterial activity against trimethoprim-sensitive Staphylococcus aureus ATCC 29213 infected in NMRI mouse model of septicemia assessed as complete protection from infections at 3.1 mg/kg, iv; assay type: functional, organism-based; parameters: dose 3.1 mg/kg
[37] = system: Enterococcus faecium; test: Antibacterial activity against vancomycin-sensitive dfrE, dfrF-negative and folA-positive Enterococcus faecium; assay type: functional
[38] = system: Enterococcus faecalis; test: Antibacterial activity against Enterococcus faecalis; assay type: functional
[39] = system: Staphylococcus epidermidis; test: Antibacterial activity against methicillin, vancomycin, trimethoprim-sensitive Staphylococcus epidermidis ATCC 14990 harboring dfrC gene; assay type: functional
[40] = system: Staphylococcus aureus; test: Antibacterial activity against trimethoprim-resistant Staphylococcus aureus BAS003908; assay type: functional
[41] = system: Staphylococcus aureus; test: Antibacterial activity against methicillin-sensitive dfrB-positive abd dfrA, dfrG-negative Staphylococcus aureus; assay type: functional
[42] = system: Haemophilus influenzae; test: Antibacterial activity against Haemophilus influenzae in presence of 50 ug/ml thymidine
[43] = system: Staphylococcus aureus; test: Antibacterial activity against trimethoprim-sensitive Staphylococcus aureus ATCC 29213; assay type: functional
[44] = system: Staphylococcus epidermidis; test: Antibacterial activity against methicillin-sensitive dfrC-positive and dfrA, dfrD-negative Staphylococcus epidermidis; assay type: functional
[45] = system: Staphylococcus aureus; test: Antibacterial activity against methicillin-resistant dfrB, dfrG-positive and dfrA-negative Staphylococcus aureus; assay type: functional
[46] = system: Enterococcus faecalis; test: Antibacterial activity against Enterococcus faecalis in presence of 50 ug/ml thymidine; assay type: functional
[47] = system: Enterococcus faecium; test: Antibacterial activity against Enterococcus faecium in presence of 50 ug/ml thymidine; assay type: functional
[48] = system: Enterococcus faecalis; test: Antibacterial activity against Enterococcus faecalis in presence of 250 ug/ml thymidine; assay type: functional
[49] = Genotoxicity in Salmonella enterica serovar Typhimurium assessed as increase in number of bacterial revertant colonies by Ames test; assay type: toxicity; settings: salmonella enterica subsp. enterica serovar typhimurium
[50] = system: Streptococcus pneumoniae; test: Antibacterial activity against Streptococcus pneumoniae
[51] = system: Staphylococcus aureus; test: Antibacterial activity against trimethoprim-sensitive Staphylococcus aureus ATCC 29213 infected in NMRI mouse model of septicemia; assay type: functional
[52] = system: Streptococcus pneumoniae; test: Antibacterial activity against Streptococcus pneumoniae in presence of 50 ug/ml thymidine; assay type: functional
[53] = system: Enterococcus faecium; test: Antibacterial activity against Enterococcus faecium; assay type: functional
[54] = Inhibition of trimethoprim-resistant Staphylococcus aureus Type S1 dihydrofolate reductase

With `COc1ncc(C2c3ccccc3C=NN2C(=O)/C=C/c2cc(Cc3cnc(N)nc3N)cc(OC)c2OC)cn1` (stereo not given) the MIC [1] was 0.5 µg/mL (≈ 0.905 µM), the Activity [2] was “inactive” and the Activity [3] was 400 mg/kg. For the same compound, the MIC [4] was 1 µg/mL (≈ 1.81 µM), the MIC ([4]; Staphylococcus aureus, read-out: MIC) was 1 µg/mL (≈ 1.81 µM) and the MIC [5] was 0.5 µg/mL (≈ 0.905 µM). The MIC [6] was 4 µg/mL (≈ 7.24 µM), the Activity [7] was < 10% and the Activity [8] was < 10%. For the same compound, the Cmax [9] was 3240 ng/mL, the MIC [10] was 32 µg/mL and the MIC [11] was 0.5 µg/mL (≈ 0.905 µM). The MIC [12] was 0.5 µg/mL (≈ 0.905 µM), the Activity [13] was < 10% and the MIC [14] was 2 µg/mL (≈ 3.62 µM). For the same compound, the MIC [15] was > 128 µg/mL, the Activity [16] was < 10% and the MIC [17] was > 128 µg/mL. The Tmax [18] was 30 min, the IC50 [19] was 22.6 nM and the IC50 [20] was 5.2 nM. For the same compound, the ED50 [21] was 3.1 mg/kg, the IC50 [22] was 12000 nM and the Activity [23] was < 10%. The MIC [24] was 0.5 µg/mL (≈ 0.905 µM), the bioavailability [25] was 25% and the Activity [26] was < 10%. For the same compound, the Activity [27] was < 10%, the MIC [28] was ≥ 128 µg/mL and the MIC [29] was > 128 µg/mL. The MIC [30] was 0.25 µg/mL (≈ 0.452 µM), the Activity [31] was 77% and the MIC [32] was 4 µg/mL (≈ 7.24 µM). The AUC(0-t) at 7 h [33] was 10600 ng·h/mL, the Activity [34] was < 10% and the MIC [35] was 0.5 µg/mL (≈ 0.905 µM). The Activity [36] was “Active”, the MIC [37] was ≤ 0.25 µg/mL and the MIC [38] was ≤ 0.25 µg/mL. For the same compound, the MIC [39] was 0.125 µg/mL (≈ 0.226 µM), the MIC [40] was 0.5 µg/mL (≈ 0.905 µM) and the MIC [41] was ≤ 0.25 µg/mL. For the same compound, the MIC [42] was 64 µg/mL, the MIC [43] was < 0.25 µg/mL and the MIC [44] was ≤ 0.25 µg/mL. The MIC [45] was 32 µg/mL (≈ 57.9 µM), the MIC [46] was ≤ 0.25 µg/mL and the MIC [47] was ≥ 128 µg/mL. For the same compound, the MIC [48] was 1 µg/mL, the Activity [49] was “Non-toxic” and the MIC [50] was 64 µg/mL (≈ 116 µM). For the same compound, the ED50 [51] was 1.6 mg/kg, the MIC [52] was 32 µg/mL and the MIC [53] was 1 µg/mL (≈ 1.81 µM). It also gave an IC50 [54] of 121 nM.
